Measurements published in ChEMBL document CHEMBL1201862, “PubChem BioAssay data set” (2004).
Calls of active or inactive are those of the source.

Tests used:
[1] = target: T1, Mannose-6-phosphate isomerase (Homo sapiens, UniProt P34949); assay: MPI inhibition at elevated mannose 6-phosphate – biochemical, fluorescence intensity, high mannose 6-phosphate, primary screen (AID 1220)
T1 sequence (P34949 whole entry): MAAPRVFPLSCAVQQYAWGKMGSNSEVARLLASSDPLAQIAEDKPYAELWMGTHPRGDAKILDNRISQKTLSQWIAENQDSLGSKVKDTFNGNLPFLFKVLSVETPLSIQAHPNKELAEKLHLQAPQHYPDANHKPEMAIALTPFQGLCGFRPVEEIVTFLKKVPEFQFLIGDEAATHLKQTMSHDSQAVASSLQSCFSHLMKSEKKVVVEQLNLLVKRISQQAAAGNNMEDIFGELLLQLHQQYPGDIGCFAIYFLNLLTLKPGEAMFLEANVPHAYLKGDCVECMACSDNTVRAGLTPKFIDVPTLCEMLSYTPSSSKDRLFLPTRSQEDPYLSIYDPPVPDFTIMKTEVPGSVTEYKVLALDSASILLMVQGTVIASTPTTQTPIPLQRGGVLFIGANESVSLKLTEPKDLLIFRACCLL

[2] = target: T1, Mannose-6-phosphate isomerase; assay: MPI enzyme activity inhibition – biochemical, fluorescence intensity, coupled assay, primary screen (AID 1209)
Cytochrome P450 2C19 [3] = target: T2, Cytochrome P450 2C19 (Homo sapiens, UniProt P33261); assay: qHTS Assay for Inhibitors and Substrates of Cytochrome P450 2C19. [Related pubchem assays: 410 ]; type: ADME; settings: read-out: Potency
T2 sequence (P33261 whole entry): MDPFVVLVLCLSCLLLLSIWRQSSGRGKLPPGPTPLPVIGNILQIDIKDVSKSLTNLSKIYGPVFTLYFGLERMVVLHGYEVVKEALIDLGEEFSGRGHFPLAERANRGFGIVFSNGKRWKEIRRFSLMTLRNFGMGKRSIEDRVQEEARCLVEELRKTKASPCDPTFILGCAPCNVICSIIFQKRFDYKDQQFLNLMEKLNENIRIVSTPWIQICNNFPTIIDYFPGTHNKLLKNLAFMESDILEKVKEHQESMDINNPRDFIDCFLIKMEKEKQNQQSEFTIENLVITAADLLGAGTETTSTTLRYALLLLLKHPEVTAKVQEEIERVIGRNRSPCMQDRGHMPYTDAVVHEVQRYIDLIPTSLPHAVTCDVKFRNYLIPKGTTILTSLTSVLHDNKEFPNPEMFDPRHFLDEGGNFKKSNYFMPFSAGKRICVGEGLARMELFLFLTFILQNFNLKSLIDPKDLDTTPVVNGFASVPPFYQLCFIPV

[4] = target: T3, Histone-lysine N-methyltransferase NSD2 (Homo sapiens, UniProt O96028); type: biochemical
T3 sequence (O96028 whole entry): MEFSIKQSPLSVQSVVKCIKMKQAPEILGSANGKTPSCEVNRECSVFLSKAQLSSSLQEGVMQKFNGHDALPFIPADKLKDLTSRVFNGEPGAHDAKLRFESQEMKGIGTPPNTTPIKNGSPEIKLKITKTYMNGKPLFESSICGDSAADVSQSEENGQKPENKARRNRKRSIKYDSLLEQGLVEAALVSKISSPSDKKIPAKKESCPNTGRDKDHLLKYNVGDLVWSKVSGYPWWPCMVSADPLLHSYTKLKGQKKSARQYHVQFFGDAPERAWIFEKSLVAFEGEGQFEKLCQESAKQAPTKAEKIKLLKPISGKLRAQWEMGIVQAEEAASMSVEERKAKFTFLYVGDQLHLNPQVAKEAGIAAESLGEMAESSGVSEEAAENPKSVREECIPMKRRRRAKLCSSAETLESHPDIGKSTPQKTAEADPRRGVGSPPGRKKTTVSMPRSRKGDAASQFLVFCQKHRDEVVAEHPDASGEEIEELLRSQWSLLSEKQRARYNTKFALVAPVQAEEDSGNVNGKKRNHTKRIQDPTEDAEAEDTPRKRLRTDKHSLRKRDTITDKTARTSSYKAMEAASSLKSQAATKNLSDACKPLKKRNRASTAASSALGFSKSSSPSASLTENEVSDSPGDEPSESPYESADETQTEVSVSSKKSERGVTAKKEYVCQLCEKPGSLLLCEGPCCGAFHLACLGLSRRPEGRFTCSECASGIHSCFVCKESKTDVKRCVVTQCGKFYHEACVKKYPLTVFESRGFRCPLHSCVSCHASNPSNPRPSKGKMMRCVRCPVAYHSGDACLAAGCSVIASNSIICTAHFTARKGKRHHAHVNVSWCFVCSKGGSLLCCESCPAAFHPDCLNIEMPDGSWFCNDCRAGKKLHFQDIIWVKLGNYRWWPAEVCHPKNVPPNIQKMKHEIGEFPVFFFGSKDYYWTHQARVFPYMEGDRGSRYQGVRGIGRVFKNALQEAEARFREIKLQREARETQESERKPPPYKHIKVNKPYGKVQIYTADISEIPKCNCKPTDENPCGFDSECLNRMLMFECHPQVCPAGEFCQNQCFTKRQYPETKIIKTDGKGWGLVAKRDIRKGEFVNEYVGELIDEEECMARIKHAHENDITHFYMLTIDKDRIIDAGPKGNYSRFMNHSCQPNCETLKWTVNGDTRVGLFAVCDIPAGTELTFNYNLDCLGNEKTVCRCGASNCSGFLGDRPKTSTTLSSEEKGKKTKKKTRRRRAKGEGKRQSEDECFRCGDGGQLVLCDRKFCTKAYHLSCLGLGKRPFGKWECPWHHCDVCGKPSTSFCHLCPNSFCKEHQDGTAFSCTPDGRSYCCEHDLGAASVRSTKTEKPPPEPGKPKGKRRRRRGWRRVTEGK

BJ [5] = assay: BJ-TERT fibroblast viability loss – cell-based, RAS-independent, luminescence, dose response (AID 1933); type: functional; settings: Homo sapiens
BJ [6] = assay: BJ-TERT-LT-ST fibroblast viability loss – cell-based, RAS-independent, luminescence, dose response (AID 1935); type: functional; settings: Homo sapiens;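 note: BJ fibroblasts immortalized with TERT plus LT and ST oncogenes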
Cytochrome P450 3A4 [7] = target: T4, Cytochrome P450 3A4 (Homo sapiens, UniProt P08684);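 note: CYP3A4 tested as one member of a cytochrome P450 panel screen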
T4 sequence (P08684 whole entry): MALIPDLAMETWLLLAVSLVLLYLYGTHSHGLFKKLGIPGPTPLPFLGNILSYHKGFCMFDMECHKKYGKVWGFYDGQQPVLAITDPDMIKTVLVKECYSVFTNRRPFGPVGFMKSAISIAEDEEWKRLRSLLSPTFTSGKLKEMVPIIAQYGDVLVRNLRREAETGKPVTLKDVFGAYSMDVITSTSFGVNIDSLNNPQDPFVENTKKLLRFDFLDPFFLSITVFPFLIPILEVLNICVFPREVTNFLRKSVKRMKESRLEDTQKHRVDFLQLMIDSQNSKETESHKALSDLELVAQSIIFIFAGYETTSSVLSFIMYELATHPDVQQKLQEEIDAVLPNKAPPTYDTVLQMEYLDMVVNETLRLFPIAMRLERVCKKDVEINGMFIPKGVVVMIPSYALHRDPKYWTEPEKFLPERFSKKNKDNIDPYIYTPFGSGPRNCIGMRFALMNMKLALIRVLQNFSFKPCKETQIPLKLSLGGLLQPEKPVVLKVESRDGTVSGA

[8] = DRD fibroblast viability loss – cell-based, non-viral oncogenic, luminescence, dose response (AID 1934); type: functional; settings: Homo sapiens
BJ [9] = assay: cells; type: functional, cell-based; settings: Homo sapiens
[10] = Luminescence-based counterscreen assay for KLF5 inhibitors: dose response cell-based high throughput screening assay to identify cytotoxic compounds using the IEC-6 intestinal epithelial cell line. [Related pubchem assays: 1700 (Primary screen.), 1834 (Confirmation screen.), 1858 (Summary AID.), 1905 (Counterscreen.)]; type: functional
[11] = P. falciparum Dd2 growth inhibitors, dose response, SYBR Green, cherry-picked samples (AID 1159567); type: functional, cell-based
[12] = toxicity to human hepatoma HepG2 cells – cell-based, cherry-picked samples, cytotoxicity control, dose response (AID 1159577); type: functional
[13] = NIH3T3 cell viability loss – ATP luminescence, mouse fibroblasts, counter-screen, dose response (AID 2010); type: functional, cell-based;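 note: cells exposed to compound for about 90 hours before reading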
[14] = Trypanosoma cruzi growth suppression in host cells – NIH3T3 host cells, beta-gal luminescence, confirmation (AID 2044); type: functional, cell-based;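 note: intracellular parasites grown in NIH/3T3 mouse fibroblasts as host cells; luminescent beta-galactosidase reporter signal from transgenic T. cruzi replicating inside host cells; inhibitors lower the luminescence signal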
[15] = target: Peroxisome proliferator-activated receptor gamma/Nuclear receptor coactivator 2 (Homo sapiens, UniProt P37231); type: functional;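 note: agonist potency for raising coactivator recruitment to the receptor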
Peroxisome proliferator-activated receptor gamma/Nuclear receptor coactivator 2, sequence (P37231 whole entry): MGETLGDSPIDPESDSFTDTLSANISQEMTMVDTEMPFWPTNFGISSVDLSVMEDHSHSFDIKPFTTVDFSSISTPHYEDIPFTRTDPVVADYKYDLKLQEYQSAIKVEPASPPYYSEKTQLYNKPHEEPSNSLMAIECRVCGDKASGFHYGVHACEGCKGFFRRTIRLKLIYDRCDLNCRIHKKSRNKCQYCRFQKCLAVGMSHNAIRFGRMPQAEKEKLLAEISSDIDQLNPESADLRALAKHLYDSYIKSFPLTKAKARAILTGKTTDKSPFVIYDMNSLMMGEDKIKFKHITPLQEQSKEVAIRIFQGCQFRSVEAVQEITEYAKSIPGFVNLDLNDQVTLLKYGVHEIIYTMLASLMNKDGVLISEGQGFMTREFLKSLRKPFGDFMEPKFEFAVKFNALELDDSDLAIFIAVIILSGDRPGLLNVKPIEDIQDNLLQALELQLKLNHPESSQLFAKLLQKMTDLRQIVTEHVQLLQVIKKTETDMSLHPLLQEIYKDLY
Peroxisome proliferator-activated receptor gamma/Nuclear receptor coactivator 2, sequence (Q15596 whole entry, further chain): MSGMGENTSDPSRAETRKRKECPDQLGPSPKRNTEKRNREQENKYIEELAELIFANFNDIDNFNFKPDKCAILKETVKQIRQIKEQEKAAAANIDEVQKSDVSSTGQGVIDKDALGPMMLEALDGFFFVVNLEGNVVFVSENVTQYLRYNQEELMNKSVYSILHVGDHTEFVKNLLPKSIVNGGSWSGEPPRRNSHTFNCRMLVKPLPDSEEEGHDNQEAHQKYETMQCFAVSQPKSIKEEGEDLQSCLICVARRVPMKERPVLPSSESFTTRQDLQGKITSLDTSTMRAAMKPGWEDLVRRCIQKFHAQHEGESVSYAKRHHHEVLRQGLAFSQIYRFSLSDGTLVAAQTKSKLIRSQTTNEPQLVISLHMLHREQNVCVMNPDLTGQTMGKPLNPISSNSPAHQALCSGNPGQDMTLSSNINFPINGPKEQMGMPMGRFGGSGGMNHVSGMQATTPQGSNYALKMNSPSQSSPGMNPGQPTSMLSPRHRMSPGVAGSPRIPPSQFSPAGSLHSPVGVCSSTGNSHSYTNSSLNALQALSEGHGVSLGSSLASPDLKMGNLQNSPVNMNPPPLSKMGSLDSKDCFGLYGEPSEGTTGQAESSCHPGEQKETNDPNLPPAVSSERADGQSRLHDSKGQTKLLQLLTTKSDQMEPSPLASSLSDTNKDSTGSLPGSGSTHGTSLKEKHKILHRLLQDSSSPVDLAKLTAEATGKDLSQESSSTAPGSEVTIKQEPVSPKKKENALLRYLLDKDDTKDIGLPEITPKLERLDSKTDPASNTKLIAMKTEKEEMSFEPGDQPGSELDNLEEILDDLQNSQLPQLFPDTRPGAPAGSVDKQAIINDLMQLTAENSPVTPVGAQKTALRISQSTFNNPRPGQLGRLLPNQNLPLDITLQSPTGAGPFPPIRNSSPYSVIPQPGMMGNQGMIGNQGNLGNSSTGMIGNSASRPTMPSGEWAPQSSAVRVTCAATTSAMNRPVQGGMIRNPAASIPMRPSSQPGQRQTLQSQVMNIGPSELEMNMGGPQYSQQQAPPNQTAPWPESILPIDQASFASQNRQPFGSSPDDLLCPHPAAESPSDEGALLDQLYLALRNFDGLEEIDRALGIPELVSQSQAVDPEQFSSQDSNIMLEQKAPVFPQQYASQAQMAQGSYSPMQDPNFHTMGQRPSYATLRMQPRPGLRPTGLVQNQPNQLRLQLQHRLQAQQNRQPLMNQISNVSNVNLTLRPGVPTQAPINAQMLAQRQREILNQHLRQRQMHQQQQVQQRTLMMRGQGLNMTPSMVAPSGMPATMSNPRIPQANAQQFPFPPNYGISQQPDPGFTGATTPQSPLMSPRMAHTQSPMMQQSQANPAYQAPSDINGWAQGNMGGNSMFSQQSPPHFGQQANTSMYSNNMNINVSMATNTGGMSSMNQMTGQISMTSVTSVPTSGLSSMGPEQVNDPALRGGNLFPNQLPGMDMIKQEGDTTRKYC

[16] = target: Peroxisome proliferator-activated receptor gamma/Nuclear receptor coactivator 3 (Homo sapiens, UniProt P37231); type: functional;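 note: agonist potency for raising coactivator recruitment to the receptor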
Peroxisome proliferator-activated receptor gamma/Nuclear receptor coactivator 3, sequence (P37231 whole entry): as the sequence (P37231 whole entry) above
Peroxisome proliferator-activated receptor gamma/Nuclear receptor coactivator 3, sequence (Q9Y6Q9 whole entry, further chain): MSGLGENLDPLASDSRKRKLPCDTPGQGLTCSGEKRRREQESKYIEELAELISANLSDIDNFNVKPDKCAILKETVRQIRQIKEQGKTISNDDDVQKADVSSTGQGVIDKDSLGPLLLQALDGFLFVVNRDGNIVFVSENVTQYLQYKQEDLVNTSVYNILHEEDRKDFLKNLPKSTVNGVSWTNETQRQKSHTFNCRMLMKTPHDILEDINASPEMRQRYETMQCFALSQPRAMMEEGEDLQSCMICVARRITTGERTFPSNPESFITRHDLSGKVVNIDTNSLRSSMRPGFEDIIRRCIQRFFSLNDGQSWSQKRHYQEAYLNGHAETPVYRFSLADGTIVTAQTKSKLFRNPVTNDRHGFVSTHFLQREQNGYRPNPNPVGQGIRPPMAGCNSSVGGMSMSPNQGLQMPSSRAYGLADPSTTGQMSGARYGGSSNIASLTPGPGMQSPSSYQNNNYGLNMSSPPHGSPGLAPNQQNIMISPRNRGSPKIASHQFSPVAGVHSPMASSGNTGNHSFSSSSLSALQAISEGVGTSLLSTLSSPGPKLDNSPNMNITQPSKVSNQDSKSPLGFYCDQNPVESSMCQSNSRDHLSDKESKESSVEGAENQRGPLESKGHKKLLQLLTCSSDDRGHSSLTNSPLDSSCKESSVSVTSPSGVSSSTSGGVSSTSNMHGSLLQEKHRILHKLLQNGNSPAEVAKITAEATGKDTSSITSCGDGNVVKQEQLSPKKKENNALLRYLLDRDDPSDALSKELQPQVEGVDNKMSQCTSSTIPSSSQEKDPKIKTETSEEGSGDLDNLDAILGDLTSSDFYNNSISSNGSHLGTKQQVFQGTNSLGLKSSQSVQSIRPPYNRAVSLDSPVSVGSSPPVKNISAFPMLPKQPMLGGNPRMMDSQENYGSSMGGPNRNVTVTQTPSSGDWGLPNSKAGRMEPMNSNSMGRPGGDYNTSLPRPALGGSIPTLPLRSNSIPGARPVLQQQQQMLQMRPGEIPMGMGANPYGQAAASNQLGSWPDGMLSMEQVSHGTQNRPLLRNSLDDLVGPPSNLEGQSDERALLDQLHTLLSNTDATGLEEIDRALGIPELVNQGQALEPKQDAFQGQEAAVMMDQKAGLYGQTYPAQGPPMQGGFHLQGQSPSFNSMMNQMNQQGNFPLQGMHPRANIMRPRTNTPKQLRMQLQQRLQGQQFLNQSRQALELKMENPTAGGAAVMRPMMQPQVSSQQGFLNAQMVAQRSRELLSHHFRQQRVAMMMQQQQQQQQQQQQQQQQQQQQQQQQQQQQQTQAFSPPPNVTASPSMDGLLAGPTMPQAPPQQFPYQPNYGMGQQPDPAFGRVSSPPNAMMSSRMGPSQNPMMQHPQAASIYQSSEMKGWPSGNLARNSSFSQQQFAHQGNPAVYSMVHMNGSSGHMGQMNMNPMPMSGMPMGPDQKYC

[17] = target: Peroxisome proliferator-activated receptor gamma/Nuclear receptor coactivator 1 (Homo sapiens, UniProt P37231); type: functional;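 note: agonist potency as compounds enhance coactivator SRC-1 recruitment to PPARgamma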
Cytochrome P450 3A4 [18] = target: T4, Cytochrome P450 3A4; remark: listed apart in the source
Cytochrome P450 2C19 [19] = target: T2, Cytochrome P450 2C19; assay: Cytochrome panel assay with activity outcomes. Panel member name: p450-cyp2c19 Compounds with AC50 equal or less than 10 uM are considered active; type: functional; settings: read-out: AC50
Cytochrome P450 2C9 = Cytochrome P450 2C9 (Homo sapiens, UniProt P11712)
[20] = target: T5, Neuropeptide Y receptor type 2 (Homo sapiens, UniProt P49146); type: functional, cell-based;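 note: HEK293 cells expressing the receptor and a CNG channel; stimulus was NPY near EC95 followed by isoproterenol to raise cAMP; antagonist potency measured as restoring cAMP signal that NPY suppresses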
T5 sequence (P49146 whole entry): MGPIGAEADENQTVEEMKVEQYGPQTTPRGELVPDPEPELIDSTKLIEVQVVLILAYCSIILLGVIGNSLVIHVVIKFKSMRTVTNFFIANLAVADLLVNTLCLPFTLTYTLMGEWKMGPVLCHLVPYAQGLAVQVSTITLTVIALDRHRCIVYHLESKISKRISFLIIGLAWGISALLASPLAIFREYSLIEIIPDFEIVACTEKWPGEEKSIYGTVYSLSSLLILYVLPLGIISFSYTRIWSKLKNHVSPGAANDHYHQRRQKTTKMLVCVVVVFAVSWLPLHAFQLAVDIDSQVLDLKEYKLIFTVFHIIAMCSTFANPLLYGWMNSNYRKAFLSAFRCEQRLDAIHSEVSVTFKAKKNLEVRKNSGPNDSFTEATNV

[21] = target: T6, Neuropeptide Y receptor type 1 (Homo sapiens, UniProt P25929); type: functional;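 note: HEK293 cells with a CNG channel challenged with NPY then isoproterenol; potency as antagonist that reverses NPY suppression of cAMP signal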
T6 sequence (P25929 whole entry): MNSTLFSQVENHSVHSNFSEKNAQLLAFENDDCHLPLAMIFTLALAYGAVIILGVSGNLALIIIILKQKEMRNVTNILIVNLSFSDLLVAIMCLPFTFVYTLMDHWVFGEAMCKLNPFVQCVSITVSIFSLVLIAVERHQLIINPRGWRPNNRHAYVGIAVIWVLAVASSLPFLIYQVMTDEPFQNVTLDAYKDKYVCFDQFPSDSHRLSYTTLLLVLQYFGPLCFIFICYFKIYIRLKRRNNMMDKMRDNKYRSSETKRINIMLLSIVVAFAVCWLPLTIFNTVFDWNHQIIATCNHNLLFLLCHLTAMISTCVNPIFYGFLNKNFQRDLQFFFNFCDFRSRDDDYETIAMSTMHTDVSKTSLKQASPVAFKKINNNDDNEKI

[22] = target: Luciferin 4-monooxygenase (Photinus pyralis, UniProt P08659); assay: inhibition of purified Photinus pyralis luciferase – biochemical, luminescence, dose response (AID 1891)
[23] = blockade of melanocortin 4 receptor signaling – cell-based, plate reader, cherry pick, counter-screen for LGR2 antagonist project, dose response (AID 743444); type: functional;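 note: transfected HEK 293 cells stimulated with alpha-MSH peptide; potency of inhibitors of the alpha-MSH evoked signal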
[24] = viability loss in HEK293 cells – cell-based, plate reader, cherry-picked samples, cytotoxicity control, dose response (AID 743446); type: functional
[25] = blockers of bursicon-stimulated LGR2 cAMP reporter – cell-based, HEK293, CRE-luciferase reporter, cherry pick, set 2, dose response (AID 743343); type: functional;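 note: transfected cells were stimulated with diluted bursicon conditioned medium after compound addition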
[26] = Luminescence Cell-Based Dose Confirmation HTS to Identify Inhibitors of Platelet Dense Granule Release. [Related pubchem assays: 1663 (Primary HTS), 1678 (Summary of Project)]; type: functional
[27] = luciferase reporter signal suppression in cells – H4 neuroglioma cells, luminescence, dose response (AID 1990); type: functional, cell-based
[28] = Luminescence Cell-Based Dose Response HTS to Identify Inhibitors of 5'UTR Stem-Loop Driven Prion Protein mRNA Translation in H4 Neuroglioblastoma Cells. [Related pubchem assays: 1827 (Project Summary), 1813 (Primary HTS)]; type: functional

Structure (SMILES): O=C(O)/C=C/C(=O)Nc1ccc2c(c1)NC(=O)CO2
- IC50 [1]: > 50 µM (not active)
- IC50 [2]: > 50 µM (not active)

Structure (SMILES): COc1ccc(/C=C/C(=O)c2ccc(OC)cc2O)cc1
- AC50 (Cytochrome P450 2C19 [3]): 0.398 µM (inconclusive)

Structure (SMILES): CCOc1cc2c(C#N)c(N3CCOCC3)nc(N)c2c(N)n1
- IC50 [1]: > 50 µM (not active)
- IC50 [2]: > 50 µM (not active)

Structure (SMILES): C(=N/Nc1cc(N2CCOCC2)nc(N2CCOCC2)n1)/c1ccccc1
- IC50 [1]: > 50 µM (not active)
- AC50 [4]: > 20 µM (inactive)
- IC50 [2]: > 50 µM (not active)

Structure (SMILES): COC(=O)c1ccc(Oc2cc(C)nc(-n3nc(C)cc3C)n2)cc1
- EC50 (BJ [5]): 0.69 µM (active)
- EC50 (BJ [6]): 0.699 µM (active)
- AC50 (Cytochrome P450 3A4 [7]): 39.8 µM (inconclusive)
- EC50 [8]: 2.25 µM (active)
- EC50 (BJ [9]): 0.851 µM (active)
- IC50 [10]: 34.2 µM (not active)

Structure (SMILES): COc1ccc(S(=O)(=O)N(C)C[C@H]2Oc3c(NC(=O)Nc4ccccc4)cccc3C(=O)N([C@@H](C)CO)C[C@H]2C)cc1
- AC50 [11]: 4.8 µM (active)
- AC50 [12]: 33.8 µM (active)

Structure (SMILES): Cc1ccc2nc(N(CCCN(C)C)C(=O)c3ccco3)sc2c1
- EC50 [13]: > 60 µM (not active)
- EC50 [14]: < 0.1 µM (active)
- EC50 (cells): 0.036 µM (active)

Structure (SMILES): Cc1cc(Cl)ccc1Oc1ncnc2oc(-c3ccccc3)cc12
- EC50 [15]: > 79.4 µM (not active)
- EC50 [16]: > 79.4 µM (not active)
- EC50 [17]: > 79.4 µM (not active)
- AC50 (Cytochrome P450 3A4 [18]): inconclusive

Structure (SMILES): Cc1cc(C(=O)N(C)CC2CCCN(CCc3ccc(F)cc3)C2)c(C)o1 (centres undefined)
- EC50 [13]: > 60 µM (not active)
- EC50 [14]: < 0.1 µM (active)
- EC50 (cells): 0.279 µM (active)

Structure (SMILES): O=C(NCCc1c[nH]c2ccccc12)c1cc([N+](=O)[O-])cc([N+](=O)[O-])c1
- EC50 [13]: > 60 µM (not active)
- EC50 [14]: < 0.1 µM (active)
- EC50 (cells): 0.264 µM (active)

Structure (SMILES): N#Cc1c(-c2ccccc2)cc(-c2ccccc2)nc1SCc1nnc(-c2ccccc2)o1
- EC50 [15]: 25.1 µM (not active)
- AC50 (Cytochrome P450 2C19 [19]): 1.41 µM (inconclusive)
- AC50 (Cytochrome P450 3A4 [7]): 7.08 µM (inconclusive)
- EC50 [16]: 27.6 µM (not active)
- AC50 (Cytochrome P450 2C9): 0.251 µM (inconclusive)
- EC50 [17]: 26.1 µM (not active)

Structure (SMILES): CCOC(=O)OCC1OC(CCc2ccccc2)CCC1Oc1ccc(OC)cc1 (centres undefined)
- AC50 (Cytochrome P450 2C19 [3]): 2.51 µM (inconclusive)

Structure (SMILES): CCO[C@@H]1OC(C(=O)N2CCN(Cc3ccc4c(c3)OCO4)CC2)=C[C@H](c2csc3ccccc23)[C@H]1CCCO
- EC50 [15]: > 79.4 µM (not active)
- EC50 [16]: > 79.4 µM (not active)
- EC50 [17]: > 79.4 µM (not active)

Structure (SMILES): O=C(COC(=O)/C=C/c1ccc(Cl)cc1)Nc1ccccc1-c1ccccc1
- IC50 [20]: 8.06 µM (active)
- IC50 [21]: 6.13 µM (active)

Structure (SMILES): S=C(NCCc1ccccc1)N/N=C/c1ccccc1Cl
- IC50 [20]: 5.07 µM (active)
- IC50 [21]: 5.02 µM (active)

Structure (SMILES): Clc1ccccc1/C=C/c1nc(-c2ccccn2)no1
- EC50 [22]: 1.87 µM (active)
- AC50 [23]: 2.74 µM (active)
- AC50 [24]: > 52 µM (inactive)
- AC50 [25]: 2 µM (active)
- EC50 [26]: 6.25 µM (active)
- EC50 [27]: 3.76 µM (active)
- IC50 [10]: > 39.8 µM (not active)
- EC50 [28]: 5.54 µM (active)

Structure (SMILES): CCC(Oc1ccc2c(=O)c(-c3ccccc3OC)coc2c1)C(=O)OCc1ccccc1 (centres undefined)
- IC50 [20]: 4.12 µM (active)
- IC50 [21]: 11.5 µM (not active)

Structure (SMILES): COc1ccc(OC)c(Nc2cc(C)nc3nc(C)nn23)c1
- IC50 [10]: 13 µM (not active)
